Measured values from ChEMBL document CHEMBL2321872, “Synthesis and antimycobacterial activity of 2,1'-dihydropyridomycins” (ACS Med Chem Lett, 2013).
Converted amounts (≈) assume the structure as drawn.

The compounds below were run on Mycobacterium tuberculosis (assay: Antimycobacterial activity against Mycobacterium tuberculosis H37Rv assessed as growth inhibition after 7 days by resazurin method). Details: 168 h.
Type: functional
`CC/C(C)=C1\OC(=O)[C@H](C)[C@H](O)[C@H](Cc2cccnc2)NC(=O)[C@@H](NC(=O)c2ncccc2O)[C@@H](C)OC1=O` [PYRIDOMYCIN] showed an MIC of 0.39 µg/mL (≈ 0.721 µM). `CC(C)[C@@H]1OC(=O)[C@H](C)[C@H](O)[C@H](Cc2cccnc2)NC(=O)[C@@H](NC(=O)c2ncccc2O)[C@@H](C)OC1=O` gave an MIC of 12.5 µg/mL (≈ 23.6 µM). Work on `CC(C)[C@H]1OC(=O)[C@H](C)[C@H](O)[C@H](Cc2cccnc2)NC(=O)[C@@H](NC(=O)c2ncccc2O)[C@@H](C)OC1=O` yielded an MIC of 1.56 µg/mL (≈ 2.95 µM).
